Results taken from PMC6220303 (EMBO Molecular Medicine, 2018).

How the values were obtained:
[1] = system: Sodium channel, binding site 2; assay: Receptor panel binding; design: species or system Rat
Protocol: (§1) Cellular Aβ release assays were done in CHO cells stably transfected with human wild‐type and human APP were done as described (Neumann et al, 2015). Determinations of logD, pKa, and binding to brain homogenates were done internally at Novartis, Basel. Plasma protein binding was determined by equilibrium dialysis using diluted plasma from the corresponding species. MDR‐1‐MDCK cells were obtained from Prof. A. Berns, Netherlands Cancer Institute, Amsterdam NL, and bi‐directional transport measurements were done as described (Rueeger et al, 2011). Receptor binding assays were done against an internal receptor panel and externally at Ricerca Biosciences, Peitou, Taiwan. In vitro binding and cellular patch clamp assays for hERG were done at Preclinical Safety, Novartis, Basel.

[2] = system: Imidazoline I2 receptor central; assay: Receptor panel binding; design: species or system Rat
Protocol: as §1

[3] = system: Calcium channel L-type, phenylalkylamine site; assay: Receptor panel binding; design: species or system Rat
Protocol: as §1

dogs [4] = assay: Long-term toxicology studies in dogs; type: in vivo, dog
Protocol: In long‐term toxicology studies, dose‐limiting non‐specific central nervous system (CNS) effects (including impaired mobility and tremor) occurred in dogs at ≥ 30 mg/kg/day and in male rats (adverse effects only observed at doses ≥ 500 mg/kg/day). […] After CNP520 withdrawal, all changes either trended toward being, or were, fully reversible. The organs that were affected by drug toxicity in these animal studies either were not relevant to the clinical target population or the toxicities occurred at a dose substantially higher than the efficacious clinical dose.
(§2) In vivo animal toxicity studies were performed according to ICH guidance for industry M3(R2) and conformed to the Institutional Animal Care and Use Guidelines for the contract laboratory and sponsor. […] Recovery was assessed after a 12‐week treatment‐free period. Beagle dogs from Marshall BKU UK, 11 months of age, were given 0 (vehicle), 5, 15, or 30 mg/kg/day for 39 weeks. Vehicle consisted of 0.5% (w/v) methylcellulose (1,500 cPS) in 0.1% (v/v) polysorbate 80 (Tween®‐80) in reverse osmosis water. At necropsy, tissues were immersion fixed in 10% neutral‐buffered formalin or modified Davidson's solution and then processed by routine methods to paraffin block and hematoxylin–eosin (H&E)‐stained histologic slides.

[5] = molecular target: Monoamine transporter VMAT2 (Rattus norvegicus, UniProt Q01827); assay: Functional assay; type: biochemical; settings: read-out: Inhibition at 10 µM
Protocol: as §1

H Nav 1.2 = H Nav 1.2 (Homo sapiens, UniProt Q99250); assay: Functional assay; type: biochemical; settings: read-out: Inhibition at 10 µM
Protocol: as §1

healthy participants = assay: Safety and tolerability in early clinical studies; type: in vivo, human; settings: for dose up to which no dose-limiting safety or tolerability findings were observed: participants ≥ 60 years
Protocol: Only the single ascending dose studies were performed in adults 18–55 or 20–45 years of age, whereas the participants in all subsequent single and multiple dose studies were cognitively normal male and post‐menopausal female subjects ≥ 60 years of age, similar to the age range of our target population in the Generation Program.
For further details, see the Appendix Table S10 in Appendix and the accompanying clinical protocols synopsis (Appendix Table S11).

dogs [6] = assay: Cardiovascular safety pharmacology in dogs; type: in vivo, dog
Lipoxygenase 5-LO = Lipoxygenase 5-LO (Homo sapiens, UniProt P09917); assay: Receptor panel; type: biochemical; settings: read-out: Inhibition at 10 µM
Protocol: as §1

rats = assay: Long-term toxicology studies in rats; type: in vivo, rat
Protocol: as §2

Sequence of Monoamine transporter VMAT2 (Q01827 whole entry): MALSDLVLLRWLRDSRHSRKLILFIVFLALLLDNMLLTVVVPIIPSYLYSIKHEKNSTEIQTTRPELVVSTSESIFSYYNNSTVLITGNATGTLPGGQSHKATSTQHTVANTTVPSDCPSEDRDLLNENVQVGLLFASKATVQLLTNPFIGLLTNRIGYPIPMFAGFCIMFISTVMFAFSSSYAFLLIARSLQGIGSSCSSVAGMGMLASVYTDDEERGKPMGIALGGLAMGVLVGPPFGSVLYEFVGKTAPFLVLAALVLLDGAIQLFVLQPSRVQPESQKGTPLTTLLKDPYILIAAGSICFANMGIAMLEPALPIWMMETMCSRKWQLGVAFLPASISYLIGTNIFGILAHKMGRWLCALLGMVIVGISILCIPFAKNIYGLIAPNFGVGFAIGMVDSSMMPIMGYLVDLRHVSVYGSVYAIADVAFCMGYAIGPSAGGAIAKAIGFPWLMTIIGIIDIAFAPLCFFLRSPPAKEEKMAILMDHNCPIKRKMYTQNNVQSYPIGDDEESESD
Sequence of Lipoxygenase 5-LO (P09917 whole entry): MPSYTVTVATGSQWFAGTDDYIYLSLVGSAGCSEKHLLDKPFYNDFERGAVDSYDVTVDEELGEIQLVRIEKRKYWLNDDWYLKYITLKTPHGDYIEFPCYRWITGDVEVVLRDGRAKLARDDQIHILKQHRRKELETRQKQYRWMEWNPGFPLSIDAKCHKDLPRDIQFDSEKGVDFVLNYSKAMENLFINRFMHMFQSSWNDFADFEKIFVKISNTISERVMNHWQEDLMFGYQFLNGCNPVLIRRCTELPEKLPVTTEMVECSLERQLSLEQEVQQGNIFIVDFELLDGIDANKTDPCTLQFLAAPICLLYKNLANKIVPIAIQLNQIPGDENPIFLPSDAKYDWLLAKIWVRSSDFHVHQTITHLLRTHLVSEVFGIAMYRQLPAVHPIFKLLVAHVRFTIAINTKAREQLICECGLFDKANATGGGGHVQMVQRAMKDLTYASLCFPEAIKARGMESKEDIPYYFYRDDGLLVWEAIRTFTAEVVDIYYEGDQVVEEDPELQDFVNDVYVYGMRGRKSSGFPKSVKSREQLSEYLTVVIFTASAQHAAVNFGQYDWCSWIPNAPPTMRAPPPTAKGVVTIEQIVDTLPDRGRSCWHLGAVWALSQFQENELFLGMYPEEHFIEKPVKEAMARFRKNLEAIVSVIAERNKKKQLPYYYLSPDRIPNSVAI
Sequence of H Nav 1.2 (Q99250 whole entry): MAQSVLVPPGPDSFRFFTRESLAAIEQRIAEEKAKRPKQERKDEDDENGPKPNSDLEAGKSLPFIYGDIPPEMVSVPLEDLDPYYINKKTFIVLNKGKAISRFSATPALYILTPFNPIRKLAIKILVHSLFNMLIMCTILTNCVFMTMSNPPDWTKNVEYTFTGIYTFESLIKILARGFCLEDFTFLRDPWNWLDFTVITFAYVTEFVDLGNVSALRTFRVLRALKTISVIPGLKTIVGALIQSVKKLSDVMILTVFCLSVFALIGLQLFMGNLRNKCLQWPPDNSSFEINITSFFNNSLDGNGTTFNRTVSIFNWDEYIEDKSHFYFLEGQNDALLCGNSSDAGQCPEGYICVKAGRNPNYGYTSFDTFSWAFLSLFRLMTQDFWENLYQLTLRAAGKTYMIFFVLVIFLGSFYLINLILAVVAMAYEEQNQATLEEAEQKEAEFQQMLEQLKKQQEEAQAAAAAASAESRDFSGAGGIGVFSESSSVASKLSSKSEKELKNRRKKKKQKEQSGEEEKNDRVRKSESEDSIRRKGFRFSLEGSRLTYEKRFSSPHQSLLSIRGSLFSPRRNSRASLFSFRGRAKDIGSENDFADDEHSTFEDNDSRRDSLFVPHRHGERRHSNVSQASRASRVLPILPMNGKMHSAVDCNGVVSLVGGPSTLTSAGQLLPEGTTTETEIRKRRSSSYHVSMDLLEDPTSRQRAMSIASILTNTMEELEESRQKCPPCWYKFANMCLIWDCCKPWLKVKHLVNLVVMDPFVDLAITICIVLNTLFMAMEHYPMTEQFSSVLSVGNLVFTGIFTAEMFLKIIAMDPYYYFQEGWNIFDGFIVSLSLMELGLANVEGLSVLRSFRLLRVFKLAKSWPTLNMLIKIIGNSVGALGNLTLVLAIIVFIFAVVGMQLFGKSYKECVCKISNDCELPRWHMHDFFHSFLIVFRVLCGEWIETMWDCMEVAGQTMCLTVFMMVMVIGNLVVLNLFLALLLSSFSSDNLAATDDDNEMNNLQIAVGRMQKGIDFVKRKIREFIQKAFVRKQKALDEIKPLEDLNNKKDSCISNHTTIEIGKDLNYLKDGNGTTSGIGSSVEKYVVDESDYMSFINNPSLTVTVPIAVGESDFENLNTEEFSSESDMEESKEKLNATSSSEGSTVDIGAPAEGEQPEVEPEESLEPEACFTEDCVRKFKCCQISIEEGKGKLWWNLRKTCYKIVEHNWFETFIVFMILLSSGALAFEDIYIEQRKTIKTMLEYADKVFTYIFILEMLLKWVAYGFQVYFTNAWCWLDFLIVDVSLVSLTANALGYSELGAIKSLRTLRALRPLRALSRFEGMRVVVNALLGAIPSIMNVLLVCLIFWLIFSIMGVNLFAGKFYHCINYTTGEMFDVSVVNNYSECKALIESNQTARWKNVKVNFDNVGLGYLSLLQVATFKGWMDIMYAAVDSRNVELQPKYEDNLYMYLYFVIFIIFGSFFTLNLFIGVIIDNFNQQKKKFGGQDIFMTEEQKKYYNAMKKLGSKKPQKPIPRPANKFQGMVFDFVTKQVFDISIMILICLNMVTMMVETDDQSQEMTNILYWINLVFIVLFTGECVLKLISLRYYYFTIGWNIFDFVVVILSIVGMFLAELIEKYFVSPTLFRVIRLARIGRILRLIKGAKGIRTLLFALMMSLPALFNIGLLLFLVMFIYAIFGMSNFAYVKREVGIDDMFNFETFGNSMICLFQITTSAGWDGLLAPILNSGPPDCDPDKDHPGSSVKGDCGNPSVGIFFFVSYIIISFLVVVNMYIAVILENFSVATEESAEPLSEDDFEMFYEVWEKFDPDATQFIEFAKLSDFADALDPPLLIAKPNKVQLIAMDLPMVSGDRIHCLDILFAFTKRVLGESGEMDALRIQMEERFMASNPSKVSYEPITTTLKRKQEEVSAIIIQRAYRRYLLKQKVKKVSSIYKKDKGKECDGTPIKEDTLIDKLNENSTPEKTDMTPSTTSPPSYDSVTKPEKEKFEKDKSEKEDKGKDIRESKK

C[C@@]1(c2nc(NC(=O)c3ncc(C(F)(F)F)cc3Cl)ccc2F)CO[C@@](C)(C(F)(F)F)C(N)=N1 [CNP520]
inhibition at 10 µM [1]: 104% | inhibition at 10 µM [2]: 61% | inhibition at 10 µM [3]: 78% | No Adverse Effect Level (dogs [4]; dog, authors' response in review file): 30 mg/kg/day | dose with dose-limiting non-specific CNS effects (impaired mobility, tremor) (dogs [4]; dogs, long-term toxicology): ≥ 30 mg/kg/day | inhibition at 10 µM [5]: 80% | inhibition at 10 µM (H Nav 1.2): 23.6% | skin-related AEs, mostly driven by pruritus (healthy participants; 3-month study, 4% for placebo): 18% | abuse potential (healthy participants; clinical studies): no signal for abuse potential | dose up to which no dose-limiting safety or tolerability findings were observed (healthy participants; for 2 weeks (maximum multiple dose tested)): ≤ 300 mg | dose up to which no dose-limiting safety or tolerability findings were observed (healthy participants; for 3 months): up to 85 mg | dose up to which no dose-limiting safety or tolerability findings were observed (healthy participants; single dose): up to 750 mg | free plasma C max (dogs [6]; 200 mg/kg): 230 nM | effect on heart rate, ECG morphology, blood pressure (dogs [6]; doses up to 200 mg/kg, and repeat dose toxicology studies (2, 4, 13, 39 weeks)): no effect on heart rate, ECG morphology, or blood pressure | inhibition at 10 µM (Lipoxygenase 5-LO): 66% | dose with delayed ovulation and slightly reduced fecundity and fertility indices (rats; female rats): ≥ 30 mg/kg/day | safety margin: exposure at NOAEL vs exposure at 85 mg in Phase IIa (rats; female rats): ≥ 7 fold | fecundity and fertility indices (rats; female rats at ≥ 30 mg/kg/day, 90% in control animals): 74% | safety margin: exposure at NOAEL vs exposure at 85 mg in Phase IIa (rats; male rats): ≥ 5 fold | dose with adverse (CNS/clinical) effects (rats; male rats, long-term toxicology): ≥ 500 mg/kg/day
